In US9513294B2, “Megastokes amino-triazolyl-BODIPY compounds and applications to live neuron staining and human serum albumin FA1 drug site probing” (National University of Singapore, priority 2012, dated 2016):
Blank lines part the entries; values can stand above or below the compound they belong to.

Key:
[1] = Absorbance and fluorescence emission spectra (SpectraMax M2); type: physicochemical; settings: for λmax Abs. (nm) / λmax Em. (nm): MKAC compound library; for λmax Abs. (nm) / λmax Absorp. (nm): absorbance maximum; for λmax Em. (nm) / λmax Emission (nm): fluorescence emission maximum; for λmax Absorp. (nm) / λmax Emission (nm): MKCA compound library
In short: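 Spectroscopic data, including quantum yields, were recorded with a SpectraMax M2 instrument and analysed in GraphPrism.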

[2] = Quantum yield measurements versus Acridine Yellow in EtOH; type: physicochemical; settings: for φ (quantum yield): excitation 460 nm; for φ (%): quantum yield
In short: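 Emission areas integrated over 510–700 nm were compared with Acridine Yellow in ethanol (Φ=0.47), all excited at 460 nm. The comparative equation was normalized to excitation-wavelength absorbance and solvent refractive index.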

λmax Absorp. ([1]; BDC library, Table 2): 476 nm
λmax Emission ([1]; BDC library, Table 2): 586 nm
φ (quantum yield) ([2]; BDC library, Table 2): 0.13%
Structure (SMILES): CCCCCC(O)c1cn(-c2ccc3n2[B-](F)(F)[N+]2=C(N4CCCCC4)C=CC2=C3c2ccc(N)cc2)nn1 (stereo not drawn) [BDC-69]

λmax Abs. (nm) [1]: 465 nm
λmax Em. (nm) [1]: 560 nm
φ (%) ([2]; MKAC compound library): 18.63%
Structure (SMILES): CCOc1ccccc1CNC1=[N+]2C(=C(c3ccc(NC(C)=O)cc3)c3ccc(-n4cc(CN(C)Cc5ccccc5)nn4)n3[B-]2(F)F)C=C1 [MKAC103-18]

λmax Abs. (nm) [1]: 464 nm
λmax Em. (nm) [1]: 561 nm
φ (%) ([2]; MKAC compound library): 18.28%
Structure (SMILES): COc1ccc(OC)c(CNC2=[N+]3C(=C(c4ccc(NC(C)=O)cc4)c4ccc(-n5cc(CN(C)Cc6ccccc6)nn5)n4[B-]3(F)F)C=C2)c1 [MKAC181-18]

λmax Absorp. ([1]; MK library, Table 5): 472 nm
λmax Emission ([1]; MK library, Table 5): 568 nm
φ (quantum yield) ([2]; MK library, Table 5): 1.96%
Structure (SMILES): CCOc1ccccc1CNC1=[N+]2C(=C(c3ccc(N)cc3)c3ccc(-n4cc(CCc5ccccc5)nn4)n3[B-]2(F)F)C=C1 [MK103-19]

λmax Absorp. ([1]; MK library, Table 5): 479 nm
λmax Emission ([1]; MK library, Table 5): 579 nm
φ (quantum yield) ([2]; MK library, Table 5): 0.16%
Structure (SMILES): CCCC(C)c1cn(-c2ccc3n2[B-](F)(F)[N+]2=C(N4CCc5ccccc5C4)C=CC2=C3c2ccc(N)cc2)nn1 (stereo not drawn) [MK66-3]

λmax Absorp. ([1]; BDC library, Table 2): 470 nm
λmax Emission ([1]; BDC library, Table 2): 564 nm
φ (quantum yield) ([2]; BDC library, Table 2): 0.28%
Structure (SMILES): Cc1ccc(-c2cn(-c3ccc4n3[B-](F)(F)[N+]3=C(N5CCCCC5)C=CC3=C4c3ccc(N)cc3)nn2)cc1 [BDC-10]

λmax Absorp. ([1]; BDCCA library, Table 4): 464 nm
λmax Emission ([1]; BDCCA library, Table 4): 586 nm
φ (quantum yield) ([2]; BDCCA library, Table 4): 1.1%
Structure (SMILES): COc1ccc2cc(-c3cn(-c4ccc5n4[B-](F)(F)[N+]4=C(N6CCCCC6)C=CC4=C5c4ccc(NC(=O)CCl)cc4)nn3)ccc2c1 [BDCCA-22]

λmax Absorp. ([1]; BDCAC library, Table 3): 469 nm
λmax Emission ([1]; BDCAC library, Table 3): 592 nm
φ (quantum yield) ([2]; BDCAC library, Table 3): 0.8%
Structure (SMILES): CC(=O)Nc1ccc(C2=C3C=CC(N4CCCCC4)=[N+]3[B-](F)(F)n3c2ccc3-n2cc(C3(O)CCCC3)nn2)cc1 [BDCAC-67]

λmax Absorp. (nm) [1]: 466 nm
λmax Emission (nm) [1]: 577 nm
φ (%) ([2]; MKCA compound library): 7.95%
Structure (SMILES): CCCC(C)c1cn(-c2ccc3n2[B-](F)(F)[N+]2=C(N(C)Cc4ccccc4)C=CC2=C3c2ccc(NC(=O)CCl)cc2)nn1 (stereo not drawn) [MKCA195-3]

λmax Absorp. ([1]; BDCCA library, Table 4): 464 nm
λmax Emission ([1]; BDCCA library, Table 4): 568 nm
φ (quantum yield) ([2]; BDCCA library, Table 4): 1.2%
Structure (SMILES): CCc1ccc(-c2cn(-c3ccc4n3[B-](F)(F)[N+]3=C(N5CCCCC5)C=CC3=C4c3ccc(NC(=O)CCl)cc3)nn2)cc1 [BDCCA-46]

λmax Absorp. (nm) [1]: 466 nm
λmax Emission (nm) [1]: 573 nm
φ (%) ([2]; MKCA compound library): 6.71%
Structure (SMILES): CC1CN(C2=[N+]3C(=C(c4ccc(NC(=O)CCl)cc4)c4ccc(-n5cc(CC6CCCCC6)nn5)n4[B-]3(F)F)C=C2)CC(C)O1 (stereo not drawn) [MKCA20-8]

λmax Abs. (nm) [1]: 467 nm
λmax Em. (nm) [1]: 560 nm
φ (%) ([2]; MKAC compound library): 18.26%
Structure (SMILES): CC(=O)Nc1ccc(C2=C3C=CC(NCc4cc(F)cc(F)c4)=[N+]3[B-](F)(F)n3c2ccc3-n2cc(CC(C)C)nn2)cc1 [MKAC412-43]

λmax Absorp. ([1]; MK library, Table 5): 475 nm
λmax Emission ([1]; MK library, Table 5): 564 nm
φ (quantum yield) ([2]; MK library, Table 5): 0.92%
Structure (SMILES): Nc1ccc(C2=C3C=CC(NCc4cc(F)cc(F)c4)=[N+]3[B-](F)(F)n3c2ccc3-n2cc(CCc3ccccc3)nn2)cc1 [MK412-19]

λmax Absorp. ([1]; MK library, Table 5): 473 nm
λmax Emission ([1]; MK library, Table 5): 565 nm
φ (quantum yield) ([2]; MK library, Table 5): 0.36%
Structure (SMILES): CCCC(C)c1cn(-c2ccc3n2[B-](F)(F)[N+]2=C(NCc4cc(OC)ccc4OC)C=CC2=C3c2ccc(N)cc2)nn1 (stereo not drawn) [MK181-3]

λmax Abs. (nm) [1]: 466 nm
λmax Em. (nm) [1]: 563 nm
φ (%) ([2]; MKAC compound library): 23.69%
Structure (SMILES): CC(=O)Nc1ccc(C2=C3C=CC(NCc4ccccc4C)=[N+]3[B-](F)(F)n3c2ccc3-n2cc(C3CCCC3)nn2)cc1 [MKAC101-5]

λmax Abs. (nm) [1]: 469 nm
λmax Em. (nm) [1]: 581 nm
φ (%) ([2]; MKAC compound library): 1.92%
Structure (SMILES): CC(=O)Nc1ccc(C2=C3C=CC(N4CCc5ccccc5C4)=[N+]3[B-](F)(F)n3c2ccc3-n2cc(CC(C)C)nn2)cc1 [MKAC66-43]

λmax Absorp. ([1]; MK library, Table 5): 478 nm
λmax Emission ([1]; MK library, Table 5): 587 nm
φ (quantum yield) ([2]; MK library, Table 5): 0.14%
Structure (SMILES): CN(Cc1ccccc1)Cc1cn(-c2ccc3n2[B-](F)(F)[N+]2=C(N4CCc5ccccc5C4)C=CC2=C3c2ccc(N)cc2)nn1 [MK66-18]

λmax Absorp. ([1]; BDCAC library, Table 3): 467 nm
λmax Emission ([1]; BDCAC library, Table 3): 575 nm
φ (quantum yield) ([2]; BDCAC library, Table 3): 1.3%
Structure (SMILES): CCCCCCCCCCc1cn(-c2ccc3n2[B-](F)(F)[N+]2=C(N4CCCCC4)C=CC2=C3c2ccc(NC(C)=O)cc2)nn1 [BDCAC-49]

λmax Absorp. (nm) [1]: 465 nm
λmax Emission (nm) [1]: 560 nm
φ (%) ([2]; MKCA compound library): 21.76%
Structure (SMILES): Cc1ccccc1CNC1=[N+]2C(=C(c3ccc(NC(=O)CCl)cc3)c3ccc(-n4cc(CO)nn4)n3[B-]2(F)F)C=C1 [MKCA101-70]

λmax Absorp. ([1]; BDCAC library, Table 3): 465 nm
λmax Emission ([1]; BDCAC library, Table 3): 578 nm
φ (quantum yield) ([2]; BDCAC library, Table 3): 1.4%
Structure (SMILES): CCc1ccc(-c2cn(-c3ccc4n3[B-](F)(F)[N+]3=C(N5CCCCC5)C=CC3=C4c3ccc(NC(C)=O)cc3)nn2)cc1 [BDCAC-46]
